The record followed here is patent US8299111B2, “Compounds which modulate the CB2 receptor” (Boehringer Ingelheim International GmbH, priority 2006, dated 2012).

T1 sequence (P34972 whole entry): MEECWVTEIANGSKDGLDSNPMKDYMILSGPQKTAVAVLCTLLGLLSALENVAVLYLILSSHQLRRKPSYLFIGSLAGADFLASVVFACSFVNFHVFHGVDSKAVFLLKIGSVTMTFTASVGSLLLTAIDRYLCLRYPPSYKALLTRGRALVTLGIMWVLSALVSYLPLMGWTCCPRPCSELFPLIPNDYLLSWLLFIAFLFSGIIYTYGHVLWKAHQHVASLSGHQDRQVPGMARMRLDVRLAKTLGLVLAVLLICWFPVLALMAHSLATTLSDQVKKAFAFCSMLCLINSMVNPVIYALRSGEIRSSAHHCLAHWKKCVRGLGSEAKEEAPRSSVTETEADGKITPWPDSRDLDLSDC

This assay has as its target T1, human CB2R (Homo sapiens, UniProt P34972).
T1 construct: host or cells: CHO cells
Briefly: CB2R mediated modulation of cAMP synthesis. The assay is classed as cell-based. Particulars: found through the use of the above described assays (binding and cAMP); CHO cells expressing human CB2R, forskolin-stimulated cAMP. The procedure, abridged: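 CHO cells expressing human CB2R were treated for 30 min at 37 °C with compound in buffer containing 1 mM IBMX, 0.25% BSA and 10 uM forskolin. cAMP was measured after lysis. EC50 is the concentration giving 50% inhibition of forskolin-stimulated cAMP, scaled to the level set by 1 uM CP55940, fitted by four-parameter logistic.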
Turning to `CC(C)(C(=O)Nc1ccc(C(F)(F)F)cn1)S(=O)(=O)c1ccc(F)cc1` [2-(4-Fluoro-benzenesulfonyl)-2-methyl-N-(5-trifluoromethyl-pyridin-2-yl)-propionamide], the agonistic activity entry is reported as “agonistic activity”. In the case of `CC(C)(C(=O)Nc1cccc(C(F)(F)F)n1)S(=O)(=O)c1ccc(F)cc1` [2-(4-Fluoro-benzenesulfonyl)-2-methyl-N-(6-trifluoromethyl-pyridin-2-yl)-propionamide] it was “agonistic activity”; in that of `CC(C)(C(=O)Nc1ncc(-c2ccc(F)cc2)s1)S(=O)(=O)c1ccc(F)cc1` [2-(4-Fluoro-benzenesulfonyl)-N-[5-(4-fluoro-phenyl)-thiazol-2-yl]-2-methyl-propionamide], “agonistic activity”. In the case of `Cc1ccc(NC(=O)C(C)(C)S(=O)(=O)c2ccc(S(C)(=O)=O)cc2)nc1` [2-(4-Methanesulfonyl-benzenesulfonyl)-2-methyl-N-(5-methyl-pyridin-2-yl)-propionamide] it was “agonistic activity”; in that of `CC(C)(C(=O)Nc1cccc2ccccc12)S(=O)(=O)c1ccc(S(C)(=O)=O)cc1` [2-(4-Methanesulfonyl-benzenesulfonyl)-2-methyl-N-naphthalen-1-yl-propionamide], “agonistic activity”; in that of `CC(C)(C(=O)Nc1cnc2ccccc2c1)S(=O)(=O)c1ccc(S(C)(=O)=O)cc1` [2-(4-Methanesulfonyl-benzenesulfonyl)-2-methyl-N-quinolin-3-yl-propionamide], “agonistic activity”.

On to `COc1ccc(S(=O)(=O)C(C)(C)C(=O)Nc2cc(-c3ccccc3)nn2C)cc1` [2-(4-Methoxy-benzenesulfonyl)-2-methyl-N-(2-methyl-5-phenyl-2H-pyrazol-3-yl)-propionamide], for which the agonistic activity entry is listed as “agonistic activity”. The entry for `COc1ccc(S(=O)(=O)C(C)(C)C(=O)Nc2cc(-c3cccs3)nn2C)cc1` [2-(4-Methoxy-benzenesulfonyl)-2-methyl-N-(2-methyl-5-thiophen-2-yl-2H-pyrazol-3-yl)-propionamide] is “agonistic activity”. The entry for `COc1ccc(S(=O)(=O)C(C)(C)C(=O)Nc2nc(C(F)(F)F)cs2)cc1` [2-(4-Methoxy-benzenesulfonyl)-2-methyl-N-(4-trifluoromethyl-thiazol-2-yl)-propionamide] is “agonistic activity”; for `COc1ccc(S(=O)(=O)C(C)(C)C(=O)Nc2cnc3ccccc3c2)cc1` [2-(4-Methoxy-benzenesulfonyl)-2-methyl-N-quinolin-3-yl-propionamide] it is “agonistic activity”. For the compound `CC(C)(C)c1ccc(S(=O)(=O)C(C)(C)C(=O)Nc2cc(C(C)(C)C)on2)cc1` [2-(4-tert-Butyl-benzenesulfonyl)-N-(5-tert-butyl-isoxazol-3-yl)-2-methyl-propionamide], the agonistic activity entry was “agonistic activity”. For the compound `CC(C)(C(=O)Nc1cccc(C(F)(F)F)n1)S(=O)(=O)c1ccc(N2CCC2)nc1` [2-(6-Azetidin-1-yl-pyridine-3-sulfonyl)-2-methyl-N-(6-trifluoromethyl-pyridin-2-yl)-propionamide], the agonistic activity result is “agonistic activity”. In the case of `CC(C)(C)c1csc(NC(=O)C(C)(C)S(=O)(=O)c2ccc(N3CCC3)nc2)n1` [2-(6-Azetidin-1-yl-pyridine-3-sulfonyl)-N-(4-tert-butyl-thiazol-2-yl)-2-methyl-propionamide] it was “agonistic activity”; in that of `CC(C)(C(=O)Nc1ccc(C(F)(F)F)cn1)S(=O)(=O)c1ccc(Cl)nc1` [2-(6-Chloro-pyridine-3-sulfonyl)-2-methyl-N-(5-trifluoromethyl-pyridin-2-yl)-propionamide], “agonistic activity”; in that of `CC(C)(C(=O)Nc1cccc(C(F)(F)F)n1)S(=O)(=O)c1ccc(Cl)nc1` [2-(6-Chloro-pyridine-3-sulfonyl)-2-methyl-N-(6-trifluoromethyl-pyridin-2-yl)-propionamide], “agonistic activity”. For `CC(C)(C)c1cc(NC(=O)C(C)(C)S(=O)(=O)c2ccc3nsnc3c2)no1` [2-(Benzo[1,2,5]thiadiazole-5-sulfonyl)-N-(5-tert-butyl-isoxazol-3-yl)-2-methyl-propionamide], the agonistic activity result was “agonistic activity”. In the case of `Cn1nc(-c2ccccc2)cc1NC(=O)C(C)(C)S(=O)(=O)c1ccccc1` [2-Benzenesulfonyl-2-methyl-N-(2-methyl-5-phenyl-2H-pyrazol-3-yl)-propionamide] it was “agonistic activity”; in that of `CC(C)(C(=O)Nc1nc(-c2ccccc2)co1)S(=O)(=O)c1ccccc1` [2-Benzenesulfonyl-2-methyl-N-(4-phenyl-oxazol-2-yl)-propionamide], “agonistic activity”; in that of `CC(C)(C(=O)Nc1nc(C(F)(F)F)cs1)S(=O)(=O)c1ccccc1` [2-Benzenesulfonyl-2-methyl-N-(4-trifluoromethyl-thiazol-2-yl)-propionamide], “agonistic activity”.

Regarding `CC(C)(C(=O)Nc1ccc(C(F)(F)F)cn1)S(=O)(=O)c1ccccc1` [2-Benzenesulfonyl-2-methyl-N-(5-trifluoromethyl-pyridin-2-yl)-propionamide], the agonistic activity result is “agonistic activity”. In the case of `CC(C)(C(=O)Nc1cccc(C(F)(F)F)n1)S(=O)(=O)c1ccccc1` [2-Benzenesulfonyl-2-methyl-N-(6-trifluoromethyl-pyridin-2-yl)-propionamide] it was “agonistic activity”. `CC(C)(C)c1csc(NC(=O)C(C)(C)S(=O)(=O)c2ccccc2)n1` [2-Benzenesulfonyl-N-(4-tert-butyl-thiazol-2-yl)-2-methyl-propionamide]: the agonistic activity result was “agonistic activity”.

As to `CCc1sc(NC(=O)C(C)(C)S(=O)(=O)c2ccccc2)nc1-c1ccccc1` [2-Benzenesulfonyl-N-(5-ethyl-4-phenyl-thiazol-2-yl)-2-methyl-propionamide], the agonistic activity entry is recorded as “agonistic activity”.

Regarding `Cn1nc(C(C)(C)C)cc1NC(=O)C(C)(C)S(=O)(=O)c1ccccc1` [2-Benzenesulfonyl-N-(5-tert-butyl-2-methyl-2H-pyrazol-3-yl)-2-methyl-propionamide], the agonistic activity entry is “agonistic activity”. In the case of `Cc1nc(NC(=O)C(C)(C)S(=O)(=O)c2ccccc2)sc1C(C)(C)C` [2-Benzenesulfonyl-N-(5-tert-butyl-4-methyl-thiazol-2-yl)-2-methyl-propionamide] it was “agonistic activity”.

Turning to `CC(C)(C)c1cc(NC(=O)C(C)(C)S(=O)(=O)c2ccccc2)no1` [2-Benzenesulfonyl-N-(5-tert-butyl-isoxazol-3-yl)-2-methyl-propionamide], the agonistic activity result is on record as “agonistic activity”. In the case of `CC(C)(C(=O)Nc1nc(-c2ccc(Cl)cc2)cs1)S(=O)(=O)c1ccccc1` [2-Benzenesulfonyl-N-[4-(4-chloro-phenyl)-thiazol-2-yl]-2-methyl-propionamide] it was “agonistic activity”; in that of `CC(C)(C(=O)Nc1ccc(C(F)(F)F)cn1)S(=O)(=O)c1ccc(C(F)(F)F)cc1` [2-Methyl-2-(4-trifluoromethyl-benzenesulfonyl)-N-(5-trifluoromethyl-pyridin-2-yl)-propionamide], “agonistic activity”.
